This note sets out measurements from ChEMBL document CHEMBL3045053, “Synthesis of the quinoline-linked triazolopyrimidine analogues and their interactions with the recombinant tobacco acetolactate synthase” (Biochem Biophys Res Commun, 1999).

Each structure is given as a SMILES string. Activity calls are given as the source filed them. The rule behind the calls is not given here.

The IC50 is the concentration that gives 50% inhibition. A low value points to greater potency.

In test [1] the target is T1, Acetolactate synthase (Nicotiana tabacum, UniProt C0L093).
T1 sequence (C0L093 whole entry): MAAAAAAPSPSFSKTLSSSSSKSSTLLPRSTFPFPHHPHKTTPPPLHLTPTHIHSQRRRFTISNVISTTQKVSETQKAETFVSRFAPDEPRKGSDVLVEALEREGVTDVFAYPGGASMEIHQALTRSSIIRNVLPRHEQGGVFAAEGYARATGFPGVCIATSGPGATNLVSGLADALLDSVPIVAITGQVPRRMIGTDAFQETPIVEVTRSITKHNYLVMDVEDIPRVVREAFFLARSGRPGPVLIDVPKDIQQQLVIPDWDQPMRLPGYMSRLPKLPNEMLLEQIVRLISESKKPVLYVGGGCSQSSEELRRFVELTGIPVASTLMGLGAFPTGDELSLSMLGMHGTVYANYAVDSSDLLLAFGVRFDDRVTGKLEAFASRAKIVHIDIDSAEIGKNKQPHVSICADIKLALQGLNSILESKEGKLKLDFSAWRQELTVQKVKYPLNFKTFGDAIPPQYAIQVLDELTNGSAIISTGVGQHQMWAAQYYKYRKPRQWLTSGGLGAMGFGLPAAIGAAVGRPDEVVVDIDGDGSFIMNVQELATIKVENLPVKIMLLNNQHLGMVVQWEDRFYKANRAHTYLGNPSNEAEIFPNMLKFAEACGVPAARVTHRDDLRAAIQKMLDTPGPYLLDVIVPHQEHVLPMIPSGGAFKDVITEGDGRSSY
The test is described as follows: Inhibition of wild type Nicotiana tabacum (tobacco) GST-tagged acetolactate synthase expressed in Escherichia coli by modified Westerfeld method.

Test [2] addresses T2, Acetolactate synthase (Nicotiana tabacum) (UniProt C0L093).
T2 sequence (whole entry): T1 sequence (C0L093 whole entry)
Put plainly: Inhibition of wild type Nicotiana tabacum (tobacco) GST-tagged acetolactate synthase expressed in Escherichia coli at 1 mM by modified Westerfeld method.

In test [3] the target is Acetolactate synthase (Nicotiana tabacum, UniProt C0L093). The test is described as follows: Inhibition of wild type Nicotiana tabacum (tobacco) S4-Hra GST-tagged acetolactate synthase mutant expressed in Escherichia coli by modified Westerfeld method.

`Cc1ccn2nc(S(=O)(=O)Nc3c(Cl)ccc4cccnc34)nc2n1` had an IC50 in test [1] of 37.2 nM. That is a double-digit nanomolar value. `Cc1cc(C)n2nc(S(=O)(=O)Nc3cccc4cccnc34)nc2n1` had an IC50 in test [1] of 32.3 nM. In the case of `Cc1cc(C)n2nc(S(=O)(=O)Nc3c(Br)ccc4cccnc34)nc2n1`, the IC50 in test [1] turned out to be 8.7 nM. This IC50 is about 3.7-fold lower than that of the compound before. In the case of `Cc1ccn2nc(S(=O)(=O)Nc3cccc4ncccc34)nc2n1`, the inhibition result in test [2] is “inactive”. Consider `Cc1cc(C)n2nc(S(=O)(=O)Nc3c(F)ccc4cccnc34)nc2n1`, for which the values for the IC50 in test [1] and in test [3] were 7.7 nM and 14700 nM, respectively. Consider `Cc1ccn2nc(S(=O)(=O)Nc3cccc4cnccc34)nc2n1`, for which, in test [2], the inhibition entry was “inactive”.

In test [1], `Cc1ccn2nc(S(=O)(=O)Nc3c(C#N)ccc4cccnc34)nc2n1` registered an IC50 of 64 nM.

With `Cc1ccn2nc(S(=O)(=O)Nc3c(F)cccc3F)nc2n1` [FLUMETSULAM], the IC50 in test [1] was determined as 31.6 nM; in test [3], 939 nM. For `Cc1cc(C)n2nc(S(=O)(=O)Nc3cccc4ncccc34)nc2n1`, in test [2], the inhibition result was “inactive”.

Take `Cc1ccn2nc(S(=O)(=O)Nc3c(Br)ccc4cccnc34)nc2n1`: the IC50 in test [1] came out at 19.2 nM. For `Cc1cc(C)n2nc(S(=O)(=O)Nc3cccc4cnccc34)nc2n1`, the inhibition result in test [2] is “inactive”. Turning to `Cc1cc(C)n2nc(S(=O)(=O)Nc3nccc4ccccc34)nc2n1`, the inhibition result in test [2] is “inactive”. Regarding `Cc1ccn2nc(S(=O)(=O)Nc3c(F)ccc4cccnc34)nc2n1`, the IC50 in test [1] was 17.1 nM; in test [3] it was 16500 nM. In test [1], `Cc1cc(C)n2nc(S(=O)(=O)Nc3c(Cl)ccc4cccnc34)nc2n1` showed an IC50 of 9.4 nM. On to `Cc1ccn2nc(S(=O)(=O)Nc3nccc4ccccc34)nc2n1`, for which the inhibition result in test [2] was “inactive”.
